This is an account of results in article PMC4977052, “On the Utility of ToxCast™ and ToxPi as Methods for Identifying New Obesogens” (Environmental Health Perspectives, 2016).

For orientation: AC50 means the concentration giving half of the maximal activity seen. As usually defined, the EC50 is the concentration that produces a half-maximal response.

Experiment [1] has as its system mouse bone marrow-derived mesenchymal stem cells (mBMSCs). Format: cell-based. Particulars: 14 days, Figure 7. The method, then:
A total of 8 × 10^4 cells/well mouse bone marrow-derived mesenchymal stem cells (mBMSCs) (OriCell™) were seeded in 12-well plates in basic medium: high-glucose DMEM (Hyclone) containing 10% calf bovine serum (Premium Select, Atlanta Biologicals), 100 IU/mL penicillin, 100 μg/mL streptomycin, and 1 mM sodium pyruvate. mBMSCs were induced to differentiate in differentiation media (low glucose αMEM containing 15% fetal bovine serum (Premium Select, Atlanta Biologicals), 100 IU/mL penicillin, 100 μg/mL streptomycin and 2 mM L-glutamine) with adipogenic cocktail (500 μM isometylbutylxanthine, 1 μM dexamethasone, 5 μg/mL insulin) and either 500 nM ROSI, 50 nM TBT or ToxCast™ chemicals (as noted for 3T3-L1 cells) for 14 days, replacing the media every 3 days.
Cells were either fixed in 3.7% formaldehyde in phosphate-buffered saline (PBS) for 30 min at room temperature (RT) for lipid quantitation, or homogenized in TriPure (Roche, Mannheim, Germany) for gene expression analysis. For lipid quantitation, fixed cells were washed twice with PBS and maintained in PBS overnight at 4°C to release residual phenol red. Background of cells were measured prior to staining. Cells were stained with 1 μg/mL Nile red (CAS No. 7385-67-3) (to detect lipid accumulation) and 1 μg/mL Hoechst 33342 (ThermoFisher Scientific) (to detect nuclei as a surrogate for cell number) in PBS for 15 min in the dark at RT and washed twice with PBS. […] Background values of Hoechst and Nile red were subtracted from the RFUs after staining and the ratio RFUNile Red:RFUHoechst was calculated. Data are represented as mean ± SEM. Total RNA was isolated using TriPure (Roche) as recommended by the manufacturer. Reverse transcription and quantitative real-time RT-PCR (QPCR) were performed using Transcriptor RT and SYBR® Green Master Mix (Roche). cDNA was quantitated in a LightCycler® 480 System (Roche Diagnostics, Basel, Switzerland) using primer sets listed in Table S4. Each primer set amplified a single band as determined by gel electrophoresis and melting curve analysis. QPCR data were analyzed using the 2^ΔΔCt method ([Livak and Schmittgen 2001]) relative to ribosomal protein 36b4, normalizing to 0.1% DMSO vehicle. Error bars represent the SEM from four to six biological replicates calculated using standard propagation of error ([Bevington and Robinson 2003]).

The subject of another experiment is PPRE. Details: method as in Knudsen et al. 2011. Particulars: ToxCast Phase I 2011 release; NA = not active; ref Knudsen et al. 2011; read-out: ATGC PPRE AC50; cited from earlier work.
Experiment [2] relates to RXRα. The following applies: ref Filer et al. 2014, cited from earlier work.
Experiment [3] has as its system RXRα. The following applies: cited from earlier work.
In a further experiment the test system is 3T3-L1 preadipocytes. As to the kind of experiment: 3T3-L1 adipogenesis assay (lipid accumulation, adipogenic gene expression). It counts as cell-based. The following applies: 0.02-20 μM, 5 days after MDI induction. In short, it runs like this:
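After 2-day MDI induction with biotin and pantothenate, 3T3-L1 cells were treated 5 days with chemicals at 0.02–20 μM (0.1% DMSO; 10 μM if toxic). Lipid read as Nile red/Hoechst fluorescence ratio; adipogenic genes by QPCR, 2^ΔΔCt versus 36b4, normalized to DMSO.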

Another experiment relates to PPARγ. The following applies: ToxCast Phase I 2011 release; NA = not active; ref Knudsen et al. 2011; read-out: ATGT PPARγ AC50; cited from earlier work.
Another experiment addresses T1, GAL4-hRXRα (Homo sapiens, UniProt P19793).
T1 construct: expressed in transfected cells; host or cells: COS7
As to the kind of experiment: GAL4-hRXRα activation, transient transfection luciferase reporter in COS7 cells. It counts as cell-based. The method, then:
pCMX-Gal4, pCMX-Gal4-mPPARγ, and pCMX-Gal4-hRXRα were previously described ([Grün et al. 2006]). Transient transfections were performed in COS7 cells as described ([Chamorro-García et al. 2012]). Briefly, COS7 cells were seeded at 15,000 cells per well in 96-well tissue culture plates in 10% calf bovine serum. The following day, cells were transfected in Opti-MEM at ~ 90% confluency. One microgram of CMX-GAL4 effector plasmid was co-transfected with 5 μg tk-(MH100)4-luciferase reporter and 5 μg of CMX-β-galactosidase transfection control plasmids in Opti-MEM® using Lipofectamine® 2000 reagent (Invitrogen™ Life Technologies, Carlsbad, CA, USA), following the manufacturer’s recommended protocol. All chemicals were solvated in dimethyl sulfoxide (DMSO). After overnight incubation, the medium was replaced with Dulbecco’s Modified Eagle Medium (DMEM; HyClone, Logan, UT, USA), 10% resin charcoal stripped fetal bovine serum (FBS) plus ligands at concentrations indicated in the figure legends for an additional 24 hr. DMSO concentration was maintained at 0.05% across all chemical treatments. Cells were lysed and assayed for luciferase and β-galactosidase activity as previously described ([Forman et al. 1995]). All transfections were performed in triplicate and reproduced in multiple experiments. Data are reported as fold induction or reduction over vehicle ([…]) controls ± SEM (standard error of the mean) using standard propagation of error ([Bevington and Robinson 2003]). […] The EC50, EC10, IC50, and IC10 values from NCGC and ToxCast™ are reported from gain AC50 and AC10 values in the ToxCast™ 2014 release ([Filer et al. 2014]).
Figure 4 ToxPi Chemical Activity on PPARγ and RXRα. The ability of a graded dose series of ToxPi chemicals to activate (A) GAL4-mPPARγ or (B) GAL4-hRXRα was tested in transiently transfected COS7 cells. (A, B) Data points are averages of triplicate transfections (three biological replicates). […] ToxPi chemicals were tested in 3-fold serial dilutions from 100 μM through 0.137 μM, with the final data point being 0.05% DMSO. Data are depicted as fold induction over vehicle (0.05% DMSO) controls ± SEM. (A) Rosiglitazone serves as a positive control activator for GAL4-mPPARγ. (B) LG100268 (2-[1-(3,5,5,8,8-Pentamethyl-5,6,7,8-tetrahydro-2-naphthyl)cyclopropyl]pyridine-5-carboxylic acid) serves as a positive control activator for GAL4-hRXRα. (C) EC50 and EC10 values calculated from A and B are reported and compared to other assays (see Figure S1). ATG, Attagene GAL-PPARγ or GAL-RXRα activation assay; NCGC, GeneBLAzer® GAL-PPARγ or GAL-RXRα activation assays. Triphenyltin was previously published ([Kanayama et al. 2005]).
In general terms: In a reporter assay the amount or activity of a reporter protein is the signal.

For the next experiment, the system named is C/EBP. Also noted: method as in Knudsen et al. 2011. Particulars: ToxCast Phase I 2011 release; NA = not active; ref Knudsen et al. 2011; read-out: ATGC CEBP AC50; cited from earlier work.

Where two headings read alike, the source gives them in different places.

T1 sequence (P19793 with tags, fused parts or gaps limits assumed): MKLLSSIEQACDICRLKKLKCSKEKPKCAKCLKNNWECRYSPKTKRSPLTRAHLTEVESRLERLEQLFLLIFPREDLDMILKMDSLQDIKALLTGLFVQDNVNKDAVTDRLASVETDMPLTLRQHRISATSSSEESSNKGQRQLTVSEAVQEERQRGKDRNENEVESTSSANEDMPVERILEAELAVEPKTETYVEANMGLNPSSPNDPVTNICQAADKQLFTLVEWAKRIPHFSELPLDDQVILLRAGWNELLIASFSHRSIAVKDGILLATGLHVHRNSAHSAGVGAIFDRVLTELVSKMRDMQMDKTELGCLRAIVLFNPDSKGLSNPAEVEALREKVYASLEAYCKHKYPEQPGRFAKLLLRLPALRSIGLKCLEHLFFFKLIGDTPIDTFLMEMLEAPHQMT

`N#Cc1c[nH]cc1-c1cccc2c1OC(F)(F)O2` [Fludioxonil]: the “Adipogenic differentiation of mBMSCs (result in words)” value in experiment [1] is listed as “could differentiate these uncommitted stem cells into adipocytes”. The AC50 in the experiment on PPRE was 24 µM; with RXRα [3] (ToxCast Phase I 2011 release, NA = not active, ref Knudsen et al. 2011, read-out: NCGC RXRα AC50) it was 2.7 µM; in the experiment on PPARγ, 28 µM; at GAL4-hRXRα (Cos-7 transient transfection), 14.3 µM; in the experiment on C/EBP, 21 µM. Moreover, the “RXRα agonist: EC10, ATG” value in the experiment with RXRα [2] (AC10, ToxCast 2014 release) was 17.93 µM. The EC50 in the experiment on RXRα [2] (gain AC50, ToxCast 2014 release, read-out: RXRα agonist: EC50, ATG) is 23.6 µM; in the experiment with RXRα [3] (gain AC50, ToxCast 2014 release, ref Filer et al. 2014, read-out: RXRα agonist: EC50, NCGC) it was 2.24 µM; on GAL4-hRXRα (COS7, ligands 24 hr, read-out: RXRα agonist: EC50, Fig 4B) it was 14.3 µM. For the same compound, the “RXRα agonist: EC10, NCGC” value in the experiment on RXRα [3] (AC10, ToxCast 2014 release, ref Filer et al. 2014) was 1.20 µM. Further, the “Adipogenesis 3T3-L1 (result in words)” value in the experiment with 3T3-L1 preadipocytes is reported as “Positive”. Also, the “Activation of RXRα” value on GAL4-hRXRα (COS7, 100 μM through 0.137 μM) is reported as “activated RXRα”. Further, the “RXRα agonist: EC10, Fig 4B” value at GAL4-hRXRα (COS7, computed from EC50) is 5.42 µM. For the same compound, the “Activation COS7 (result in words): RXRα activator” value at GAL4-hRXRα (Cos-7 transient transfection) is recorded as “RXRα activator”.
